In PubChem BioAssay AID256 (DTP/NCI, 2004):
Where “and” joins values, the source holds several entries; their conditions need not be identical. Equal entries are not always repeated. Toxic doses and inconclusive results are not listed. How the source made its calls: active means survival T/C of 150% or more; inactive means T/C below 125% in these data.

Tested on: CD2F1 mice, L1210 leukemia ip, survival T/C
Assay: NCI In Vivo Anticancer Drug Screen. Data for tumor model L1210 Leukemia (intraperitoneal) in CD2F1 (CDF1) mice
Settings: higher = longer survival
Summary of the method: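 Transplantable tumor in mice; compound-treated vs vehicle-treated groups. Read-out = treated/control ratio of the measured endpoint.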

[1] = endpoint: mean survival time, dose: 100.0 mg/kg/injection, schedule: Q04DX003 (ip), vehicle: saline
[2] = endpoint: mean survival time, dose: 200.0 mg/kg/injection, schedule: Q04DX003 (ip), vehicle: saline
[3] = endpoint: mean survival time, dose: 50.0 mg/kg/injection, schedule: Q01DX009 (ip), vehicle: saline
[4] = endpoint: mean survival time, dose: 100.0 mg/kg/injection, schedule: Q01DX009 (ip), vehicle: saline
[5] = endpoint: mean survival time, dose: 200.0 mg/kg/injection, schedule: Q01DX009 (ip), vehicle: saline
[6] = endpoint: mean survival time, dose: 100.0 mg/kg/injection, schedule: Q01DX009 (ip), vehicle: saline with Tween-80
[7] = endpoint: mean survival time, dose: 100.0 mg/kg/injection, schedule: Q04DX003 (ip), vehicle: saline with Tween-80
[8] = endpoint: mean survival time, dose: 200.0 mg/kg/injection, schedule: Q01DX009 (ip), vehicle: saline with Tween-80
[9] = endpoint: mean survival time, dose: 200.0 mg/kg/injection, schedule: Q04DX003 (ip), vehicle: saline with Tween-80
[10] = endpoint: mean survival time, dose: 400.0 mg/kg/injection, schedule: Q04DX003 (ip), vehicle: saline with Tween-80
[11] = endpoint: mean survival time, dose: 50.0 mg/kg/injection, schedule: Q01DX009 (ip), vehicle: saline with Tween-80
[12] = endpoint: mean survival time, dose: 100.0 mg/kg/injection, schedule: Q04DX003 (ip), vehicle: Klucel (hydroxypropylcellulose) (HPC)
[13] = endpoint: mean survival time, dose: 200.0 mg/kg/injection, schedule: Q04DX003 (ip), vehicle: Klucel (hydroxypropylcellulose) (HPC)

Measured: T/C

CCC(C)(O)C(C)N(C)C1CCCCC1 (stereo not given)
inactive: [1] 97 % of control and 100 % of control | [2] 100 % of control and 97 % of control

C=CCc1nc2c(N)ncnc2n1C1OC(CO)C(O)C1O (stereo not given)
inactive: endpoint: median survival time, dose: 12.5 mg/kg/injection, schedule: Q01DX005 (ip), vehicle: water 105 % of control | endpoint: median survival time, dose: 25.0 mg/kg/injection, schedule: Q01DX005 (ip), vehicle: water 104 % of control | endpoint: median survival time, dose: 50.0 mg/kg/injection, schedule: Q01DX005 (ip), vehicle: water 102 % of control | endpoint: median survival time, dose: 100.0 mg/kg/injection, schedule: Q01DX005 (ip), vehicle: water 102 % of control | endpoint: median survival time, dose: 200.0 mg/kg/injection, schedule: Q01DX005 (ip), vehicle: water 104 % of control

COc1cc2c(c(OC)c1OC)-c1ccc(OC)c(=O)cc1[C@@H](N)CC2
inactive: endpoint: median survival time, dose: 1.5 mg/kg/injection, schedule: Q01DX009 (ip), vehicle: saline 120 % of control

COC(=O)c1ccc(NCC(=N)N)cc1
inactive: [3] 100 % of control | [4] 122 % of control | [5] 100 % of control

O=C(/C=C(\Cl)C(=O)NO)NO
inactive: endpoint: mean survival time, dose: 6.25 mg/kg/injection, schedule: Q01DX009 (ip), vehicle: saline 101 % of control and 103 % of control | endpoint: mean survival time, dose: 12.5 mg/kg/injection, schedule: Q01DX009 (ip), vehicle: saline 94 % of control and 104 % of control | endpoint: mean survival time, dose: 25.0 mg/kg/injection, schedule: Q01DX009 (ip), vehicle: saline 95 % of control and 100 % of control | [3] 115 % of control and 108 % of control | [4] 113 % of control and 95 % of control

O=C(O)C1C2C/C(=N\O)C(C2)C1C(=O)O (stereo not given)
inactive: endpoint: mean survival time, dose: 50.0 mg/kg/injection, schedule: Q04DX003 (ip), vehicle: saline 94 % of control | [1] 101 % of control | [2] 103 % of control

Cc1cc(C)c2c(C#N)cn(-c3cccc(Cl)c3)c2n1
inactive: [1] 97 % of control

Cc1cc(Cl)ccc1OCC(=O)Nc1nc(N)nc(N)n1
inactive: [6] 105 % of control | [7] 89 % of control | [8] 102 % of control | [9] 90 % of control | endpoint: mean survival time, dose: 400.0 mg/kg/injection, schedule: Q01DX009 (ip), vehicle: saline with Tween-80 100 % of control | [10] 101 % of control

COC(=O)C(CCCCN)NC(=O)c1ccccc1 (stereo not given)
inactive: [7] 101 % of control | [9] 103 % of control | [10] 101 % of control

O=C(NC(CSCc1ccccc1)C(=O)O)OCc1ccccc1 (stereo not given)
inactive: [11] 98 % of control | [6] 94 % of control | [7] 93 % of control | [8] 103 % of control | [9] 101 % of control

CCOC(=O)c1ccc(NNS(=O)(=O)c2cccc(N)c2)cc1
inactive: endpoint: mean survival time, dose: 100.0 mg/kg/injection, schedule: Q01DX009 (ip), vehicle: Klucel (hydroxypropylcellulose) (HPC) 97 % of control | [7] 96 % of control | endpoint: mean survival time, dose: 200.0 mg/kg/injection, schedule: Q01DX009 (ip), vehicle: Klucel (hydroxypropylcellulose) (HPC) 93 % of control | [9] 101 % of control | endpoint: mean survival time, dose: 400.0 mg/kg/injection, schedule: Q01DX009 (ip), vehicle: Klucel (hydroxypropylcellulose) (HPC) 101 % of control | [10] 95 % of control

O=S(=O)(O)O.[NH-]C1CCCCC1[NH-].[Pt+2] (stereo not given)
inactive: endpoint: mean survival time, dose: 0.04 mg/kg/injection, schedule: Q01DX009 (ip), vehicle: water 109 % of control | endpoint: mean survival time, dose: 0.05 mg/kg/injection, schedule: Q04DX003 (ip), vehicle: water 110 % of control | endpoint: mean survival time, dose: 0.32 mg/kg/injection, schedule: Q01DX001 (ip), vehicle: water 120 % of control | endpoint: mean survival time, dose: 0.63 mg/kg/injection, schedule: Q01DX001 (ip), vehicle: dextrose 124 % of control | endpoint: mean survival time, dose: 0.63 mg/kg/injection, schedule: Q04DX003 (oral), vehicle: water 96 % of control | endpoint: mean survival time, dose: 0.78 mg/kg/injection, schedule: Q04DX003 (ip), vehicle: dextrose 119 % of control | endpoint: mean survival time, dose: 1.2 mg/kg/injection, schedule: Q01DX009 (oral), vehicle: water 100 % of control | endpoint: mean survival time, dose: 1.25 mg/kg/injection, schedule: Q01DX001 (ip), vehicle: dextrose 119 % of control | endpoint: mean survival time, dose: 1.25 mg/kg/injection, schedule: Q01DX001 (oral), vehicle: water 98 % of control | endpoint: mean survival time, dose: 1.25 mg/kg/injection, schedule: Q04DX003 (oral), vehicle: water 98 % of control | endpoint: mean survival time, dose: 1.56 mg/kg/injection, schedule: Q04DX003 (ip), vehicle: saline with Tween-80 100 % of control | endpoint: mean survival time, dose: 2.4 mg/kg/injection, schedule: Q01DX009 (oral), vehicle: water 97 % of control | endpoint: mean survival time, dose: 2.5 mg/kg/injection, schedule: Q01DX001 (ip), vehicle: dextrose 124 % of control | endpoint: mean survival time, dose: 3.12 mg/kg/injection, schedule: Q04DX003 (ip), vehicle: saline with Tween-80 110 % of control | endpoint: mean survival time, dose: 5.0 mg/kg/injection, schedule: Q01DX001 (oral), vehicle: water 100 % of control | endpoint: mean survival time, dose: 10.0 mg/kg/injection, schedule: Q01DX001 (ip), vehicle: dextrose 109 % of control | endpoint: mean survival time, dose: 10.0 mg/kg/injection, schedule: Q04DX003 (oral), vehicle: water 98 % of control | endpoint: mean survival time, dose: 12.5 mg/kg/injection, schedule: Q04DX003 (ip), vehicle: dextrose 110 % of control | endpoint: mean survival time, dose: 12.5 mg/kg/injection, schedule: Q04DX003 (ip), vehicle: saline 93 % of control | endpoint: mean survival time, dose: 40.0 mg/kg/injection, schedule: Q01DX001 (oral), vehicle: water 109 % of control

O=C1C=Cc2ccccc2C1=O
inactive: endpoint: mean survival time, dose: 0.63 mg/kg/injection, schedule: Q01DX009 (ip), vehicle: saline 98 % of control | endpoint: mean survival time, dose: 1.0 mg/kg/injection, schedule: Q01DX009 (ip), vehicle: saline 105 % of control | endpoint: mean survival time, dose: 1.25 mg/kg/injection, schedule: Q01DX009 (ip), vehicle: saline 104 % of control | endpoint: mean survival time, dose: 2.0 mg/kg/injection, schedule: Q01DX009 (ip), vehicle: saline 98 % of control | endpoint: mean survival time, dose: 2.5 mg/kg/injection, schedule: Q01DX009 (ip), vehicle: saline with Tween-80 110 % of control | endpoint: mean survival time, dose: 2.5 mg/kg/injection, schedule: Q01DX009 (ip), vehicle: saline 98 % of control | endpoint: mean survival time, dose: 4.0 mg/kg/injection, schedule: Q01DX009 (ip), vehicle: saline 88 % of control

O=CNc1ccc(I)cc1
inactive: [7] 106 % of control | [9] 98 % of control | [10] 101 % of control

Brc1c(Br)c(Br)c2n[nH]nc2c1Br
inactive: [3] 104 % of control | [4] 104 % of control | [5] 108 % of control

N#CCCNCCNCCC#N
inactive: [11] 96 % of control | [6] 104 % of control | [8] 104 % of control

CCO/C=C/C(=O)NC(=O)NC1CC(CO)CC1O (stereo not given)
inactive: [11] 97 % of control | [6] 97 % of control | [8] 105 % of control

Cc1c[nH]c(=O)n(CC(=O)C2CCC3C4CCC5=CC(=O)CCC5(C)C4CCC23C)c1=O (stereo not given)
inactive: endpoint: mean survival time, dose: 12.5 mg/kg/injection, schedule: Q04DX003 (ip), vehicle: Klucel (hydroxypropylcellulose) (HPC) 95 % of control | endpoint: mean survival time, dose: 25.0 mg/kg/injection, schedule: Q04DX003 (ip), vehicle: Klucel (hydroxypropylcellulose) (HPC) 95 % of control | endpoint: mean survival time, dose: 50.0 mg/kg/injection, schedule: Q04DX003 (ip), vehicle: Klucel (hydroxypropylcellulose) (HPC) 97 % of control | [12] 98 % of control | [13] 98 % of control

ClCCN(CCCl)c1ccc(N=Nc2ccccc2)cc1
inactive: [12] 102 % of control | [13] 113 % of control | endpoint: mean survival time, dose: 400.0 mg/kg/injection, schedule: Q04DX003 (ip), vehicle: Klucel (hydroxypropylcellulose) (HPC) 113 % of control

COc1cccc(N2CCN(CC(O)COc3ccc(N)cc3)CC2)c1 (stereo not given)
inactive: endpoint: mean survival time, dose: 6.25 mg/kg/injection, schedule: Q04DX002 (ip), vehicle: other 98 % of control | endpoint: mean survival time, dose: 12.5 mg/kg/injection, schedule: Q04DX002 (ip), vehicle: other 95 % of control | endpoint: mean survival time, dose: 25.0 mg/kg/injection, schedule: Q04DX002 (ip), vehicle: other 107 % of control

Nc1nc(SCc2ccccc2[N+](=O)[O-])c2[nH]cnc2n1
inactive: endpoint: mean survival time, dose: 125.0 mg/kg/injection, schedule: Q01DX Z (ip), vehicle: carboxymethylcellulose (CMC) 102 % of control | endpoint: mean survival time, dose: 250.0 mg/kg/injection, schedule: Q01DX Z (ip), vehicle: carboxymethylcellulose (CMC) 104 % of control | endpoint: mean survival time, dose: 500.0 mg/kg/injection, schedule: Q01DX Z (ip), vehicle: carboxymethylcellulose (CMC) 116 % of control | endpoint: mean survival time, dose: 1000.0 mg/kg/injection, schedule: Q01DX Z (ip), vehicle: carboxymethylcellulose (CMC) 112 % of control

CCCCOB=O
inactive: [7] 96 % of control | [9] 98 % of control | [10] 95 % of control

COc1ccc(NC(=O)Oc2c(C)cccc2C)cc1
inactive: endpoint: mean survival time, dose: 100.0 mg/kg/injection, schedule: Q04DX002 (ip), vehicle: saline with Tween-80 97 % of control | endpoint: mean survival time, dose: 200.0 mg/kg/injection, schedule: Q04DX002 (ip), vehicle: saline with Tween-80 97 % of control | endpoint: mean survival time, dose: 400.0 mg/kg/injection, schedule: Q04DX002 (ip), vehicle: saline with Tween-80 101 % of control
